Source: patent publication US9066938B2, “GPBP-1 inhibition and its therapeutic use” (Fibrostatin S.L., priority 2012, dated 2015)
Counter-ions that a name gives are not always drawn.

Columns and labels:
[1] = tested on: JLSM cells; assay: Cell viability of JLSM primary cultures (lung epidermoid carcinoma); assay type: cell-based, human; conditions: 36 h
Protocol: FIG. 14. T12 sharply reduce JLSM cell viability. A and B, JLSM cells were seeded (10.000 cells per cm^2) on collagen-I coated 96-well culture plate. Cells were settled for 4 h and subjected to the indicated treatments and cellular viability assayed after 36 h. Control bars represent cells without T12 or […]. JLSM cells were obtained from a human lung epidermoid carcinoma biopsy following standard procedures. […] Subsequently, explants were further incubated with 1 mL per well of serum-free B-ALITM air-liquid interface medium from CloneticsTM (B-ALI medium). When cells started to grow, explants were removed and cells passed to a collagen I coated flask with fresh medium. Cultures were kept in a humidified 37° C. incubator with 5% (v/v) CO2 and 95% (v/v) air. Cytotoxicity assays were performed with alamarBlue® reagent (Invitrogen) according to manufacturer's instructions. A549 cells were seeded on 96-well culture plates (7,500 cells/well) and allowed to settle during 4 h. Then, cells were cultured with individual peptidomimetics at concentrations ranging from 0 to 50 μM, in presence of doxorubicin at concentrations ranging from 0 to 10 μM for 36 h. […] Fluorescence was measured using 560EX nm/590EM nm filter settings with a SpectraMax […] […] Blank wells containing media were used to determine background fluorescence.

[2] = Synergism of T12 with paclitaxel (no details given); conditions: T12 plus paclitaxel
[3] = tested on: A549 xenografts; assay: Mouse xenograft study with A549 tumors; assay type: in vivo, nude mice; conditions: for tumor growth, single compound: doxorubicin 2.5 mg/kg per week i.p. or T12 20 mg/kg per day in drinking water, three weeks
Protocol: FIG. 11. T12 and doxorubicin are synergistic arresting growth of A549-based tumors. Nude mice bearing A549 xenografts were treated with the indicated compounds as indicated in Methods and Experimental Design. Indicated are the tumor size at the indicated times. […] FIG. 12. T12 and doxorubicin are synergistic necrotizing A549-based tumors. Tumor samples from mice used in FIG. 11 were fixed in formalin, paraffin-embedded, subjected to Masson's trichrome staining and observed by optical microscopy. Necrotic areas are indicated with asterisks. Shown are representative images. FIG. 13. […] Ten-week old nude mice (NMRi-Foxn1^nu/Foxn1^nu) (Janvier) were used for xenograft studies. Three-million A549 cells were suspended in 100 μL of culture medium, mixed with 200 μL Matrigel (BD) and subcutaneously injected on the flank of individual mouse (n=40). Tumor size was periodically measured with a digital caliper and volumes were calculated with the formula […]. […] After three weeks mice were sacrificed, tumor xenografts excised and either fixed with formalin and paraffin-embedded or frozen and RNA extracted. Sections of paraffin-embedded tumor samples were subjected to hematoxylin and eosin and Masson's trichrome standard stainings. Frozen tumor samples were ground with a mortar in liquid nitrogen and total RNA extracted as above indicated.

[4] = tested on: A549 cells (CSC/SP and CTAC/MP compartments); assay: Doxorubicin content of A549 cells by flow cytometry; assay type: cell-based, human; conditions: doxorubicin 1 μM plus T12 50 μM
Protocol: FIG. 10. T12 enhances doxorubicin accumulation, preferentially in CSC/SP cells. A549 cultures were untreated (control) or treated with doxorubicin (1 μM) and/or T12 (50 μM). A, doxorubicin content was measured by flow cytometry using the PE channel. Represented are fluorescence intensity values. The increased amount of doxorubicin is evidenced by the rightwards displacement of the fluorescence peak. B, CSC/SP and CTAC/MP compartments were identified as in FIG. 9 and the doxorubicin content of cells was determined as in A.
A549 cells were suspended at 10^6 cells/mL in culture medium containing 10 mM Hepes (previously warmed at 37° C.). Hoechst 33342 was added at 5 μg/mL and cells incubated in a 37° C. bath with shaking for 90 min in the dark. Before incubation (and after staining) an aliquot of 1 mL was taken and verapamil (50 μM) and fumitremorgin C (10 μM) added. Cells were centrifuged at 300×g for 5 min at 4° C. and suspended in cold medium with 10 mM Hepes. Cells were kept at 4° C. until analysis. Analysis of Hoechst 33342 efflux was assessed using a Flow Cytometer with incident 350 nm ultraviolet light. The resulting fluorescence was measured at two wavelengths using 424/44 BP and 675 LP filters that allow detection of Hoechst blue and red, respectively. […] Doxorubicin content in either population was estimated with incident 488 nm blue light and 585/40 filter. […]

[5] = tested on: A549 cells; assay: Migration assay in modified Boyden chambers; assay type: cell-based, human; conditions: 16 h
Protocol: FIG. 8. T12 inhibits cancer cell migration. A modified Boyden chamber was used to measure migration as described in Methods and Experimental Design. Doxorubicin was used at 1 μM and T12 at 50 μM.
Migration assays were performed using modified Boyden chambers (Transwell inserts, 6.5 mm diameter; Corning). Inserts containing polycarbonate membranes with 8 μm pores were placed into the lower chambers containing 400 μl media (DMEM:F-12 supplemented with 10% FBS, 1% penicillin-streptomycin and 2 mM glutamine). Serum-starved A549 cells were removed from culture dishes with Hanks' balanced salt solution containing 0.5% trypsin and 0.2% EDTA (Sigma), washed and suspended in media without serum (DMEM:F-12, 1% penicillin-streptomycin and 2 mM glutamine) at 10^6 cells/mL. Two-hundred fifty thousand (250,000) cells in 250 μL media without serum were added to the top of each migration chamber and allowed to migrate to the underside of the porous membrane for 16 h. T12 and doxorubicin were present in the media of both top and bottom compartments throughout the assay. […] The detached cells were labeled with Calcein AM Fluorescent Dye (4 μg/ml) for 90 min at 37° C. and the fluorescence was measured at 494/517 nm (Abs/Em).

[6] = tested on: A549 cells; assay: T12 LC50 in A549 cells cultured without serum to expand the CSC/SP compartment; assay type: cell-based; conditions: Homo sapiens
Protocol: FIG. 16. GPBP is over-expressed in A549 cells grown in B-ALI media that allows CSC/SP expansion. Bars represent the relative expression of the indicated genes in A549 cells grown with the indicated culture medium during the indicated times. A549 cells grown in DMEM: Ham's F12 medium supplemented with 2 mM L-glutamine and 10% fetal bovine serum (day 0) were used as reference.
Chemoresistance is widely accepted to depend on epigenetic changes occurring at the CSC/SP compartment (Alberts et al. 2007). Accordingly GPBP-mediated doxorubicin resistance is expected to occur on CSC/SP compartment. To test this we cultured A549 cells in the absence of serum using culture conditions known to expand CSC/SP compartment.

[7] = 2.5 mg/kg/week doxorubicin and 20 mg/kg/day T12, three weeks

SMILES | biological activity on JLSM primary cultures, single compound [1] | synergism of T12 with paclitaxel [2] | matrix metalloproteinase 10 (MMP-10) expression in tumors, combined treatment ([3]; 2.5 mg/kg/week doxorubicin and 20 mg/kg/day T12, qPCR) | necrotic areas within the tumors, combined treatment [3, 7] | tumor growth, combined administration [3, 7] | tumor growth, single compound [3] | doxorubicin content of cells versus doxorubicin only [4] | cell migration of A549 cells, T12 with additional doxorubicin ([5]; T12 50 μM plus doxorubicin 1 μM) | cell migration of A549 cells ([5]; T12 50 μM) | CC50 ([6]; A549, A549 comparison culture (CSC/SP not expanded)) | CC50 ([6]; A549, A549 cultured in the absence of serum, expanded CSC/SP compartment)
COc1ccc(-c2ccc(-c3cccc(C)c3)c(C)c2)c(CCC(=O)O)c1 [T12, 3-[4″-methoxy-3,2′-dimethyl-(1,1′;4′,1″)terphenyl-2″-yl] propionic acid] | highly sensitive | synergistic | lower levels | more extensive | tumor arrest | did not impaired tumor growth | higher doxorubicin content | virtually arrested | sharply inhibited | 125 µM | 15 µM
COc1cccc2c1C(=O)c1c(O)c3c(c(O)c1C2=O)C[C@@](O)(C(=O)CO)C[C@@H]3O[C@H]1C[C@H](N)[C@H](O)[C@H](C)O1 [doxorubicin, doxorubicin hydrochloride, reference compound] | virtually resistant |  |  |  |  | did not impaired tumor growth |  |  |  |  | 
